The data set can be described thus: mn = molality of the nth substance listed, in mol/kg. As to conditions: 101 kPa, Liquid, m1 = 1.

Where “and” joins values, the source holds several entries; their conditions need not be identical. Identical values can stand only once. ± gives the expanded uncertainty stated by the source.

Broadly, the viscosity is the internal friction of a fluid under shear. `CC(=O)[O-].CC(=O)[O-].[Ca+2]` [calcium acetate] + O: the viscosity is 1.545 ± 0.038 mPa·s and 1.563 ± 0.038 mPa·s (303.15 K); 1.412 ± 0.035 mPa·s (308.15 K); 1.265 ± 0.032 mPa·s (313.15 K); 1.127 ± 0.029 mPa·s (318.15 K); 0.999 ± 0.026 mPa·s (323.15 K).

Regarding `CC(=O)[O-].[K+]` [potassium ethanoate] + O, the viscosity (303.15 K) came out at 0.975 ± 0.025 mPa·s; the viscosity (308.15 K) is listed as 0.8864 ± 0.023 mPa·s; the viscosity (313.15 K) stood at 0.805 ± 0.021 mPa·s; the viscosity (318.15 K) stood at 0.719 ± 0.019 mPa·s; the viscosity (323.15 K) was 0.655 ± 0.018 mPa·s.

On to `CC(=O)[O-].[Na+]` [sodium ethanoate] + O, for which the viscosity by setting is: (303.15 K) 1.095 ± 0.028 mPa·s; (308.15 K) 1.005 ± 0.026 mPa·s; (313.15 K) 0.9052 ± 0.024 mPa·s; (318.15 K) 0.801 ± 0.021 mPa·s; (323.15 K) 0.721 ± 0.019 mPa·s.

Source of the values: the NIST ThermoML archive (doi:10.1007/s10765-011-1111-y).
